Measured values: US4980377A, “1-(aminophenyl)-2-aminopropanone derivatives” (Laboratoire L. Lafon, priority 1984, dated 1990)
“Also recorded” adds a separate entry of the source. Structures can show the parent of a compound that is named as a salt.

Experiments:
male mice = experiment: Acute toxicity by intraperitoneal administration; assay type: in vivo, mouse; conditions: i.p.
Protocol: (§1) In the neuropsychopharmacological study which follows, a solution of CRL 41 153 in distilled water (pH 1.5) was administered intraperitoneally in a volume of 20 ml/kg to male mice and 5 ml/kg to male rats.

mice [1] = experiment: Overall behavior and reactivities in mice; assay type: in vivo, mouse; conditions: i.p.
Protocol: as §1
(§2) Groups of three animals are observed before and then 0.25 hour, 0.50 hour, 1 hour, 2 hours, 3 hours and 24 hours after the administration of CRL 41 153.

rats [2] = experiment: Overall behavior and reactivities in rats; assay type: in vivo, rat; conditions: i.p.
Protocol: as §1, §2

mice [3] = experiment: Interaction with apomorphine in mice; assay type: in vivo, mouse; conditions: i.p.
Protocol: Groups of 6 mice receive CRL 41 153 0.5 hour before the subcutaneous injection of 1 or 16 mg/kg of apomorphine.

rats [4] = experiment: Interaction with apomorphine in rats; assay type: in vivo, rat; conditions: i.p.
Protocol: CRL 41 153 is administered to groups of 6 rats 0.5 hour before the subcutaneous injection of 0.5 mg/kg of apomorphine.

rats [5] = experiment: Interaction with amphetamine; assay type: in vivo, rat; conditions: i.p.
Protocol: Amphetamine (2 mg/kg) is injected intraperitoneally into groups of 6 rats 30 minutes after the administration of CRL 41 153. […] 4 mg/kg and 16 mg/kg, CRL 41 153 potentiates the intensity and duration of the stereotypies induced by amphetamine.

mice [6] = experiment: Interaction with reserpine; assay type: in vivo, mouse; conditions: i.p.
Protocol: Four hours after the intraperitoneal injection of 2.5 mg/kg of reserpine, groups of 6 mice receive CRL 41 153.

mice [7] = experiment: Four plate test, traction and electric shock; assay type: in vivo, mouse; conditions: i.p.
Protocol: The test is performed on groups of 10 mice 30 minutes after the administration of CRL 41 153.

mice [8] = experiment: Spontaneous motility; assay type: in vivo, mouse; conditions: i.p.
Protocol: 0.5 hour after they have received CRL 41 153, the mice (6 per dose, 12 control animals) are placed in an actimeter, where their motility is recorded for 30 minutes.

mice [9] = experiment: Intergroup aggressiveness; assay type: in vivo, mouse; conditions: i.p.
Protocol: After they have stayed for 3 weeks in the two halves of a cage divided by an opaque partition, groups of 3 mice receive CRL 41 153. Half an hour later, the two groups from the same cage are brought together by removal of the partition, and the number of fights which occur in 10 minutes is noted.

mice [10] = experiment: Motility reduced by habituation to the enclosure; assay type: in vivo, mouse; conditions: i.p.
Protocol: After they have stayed In the actimeters for 18 hours, (he mice (6 per dose, 12 control animals) receive CRL 41 153. They are immediately returned to their respective enclosures and, half an hour later, their motility is recorded for 30 minutes.

dogs = experiment: Cardiovascular study in anesthetized dogs; assay type: in vivo, dog; conditions: anesthetized dogs
In short: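 Nembutal-anaesthetized dogs (~14 kg) given CRL 41 194 (n=2) or CRL 41 221 (n=4) intraduodenally at successive 0.1, 0.5, 1, 2.5, 5 and 10 mg/kg doses. Blood pressure, heart rate, femoral and vertebral flow, rectal temperature measured; skin colour observed, plus bile colour (CRL 41 194).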

[11] = tested on: gravid White New Zealand female rabbits; experiment: Teratogenicity in gravid White New Zealand rabbits; assay type: in vivo, rabbit; conditions: day 5 to day 18 of gestation; for Affected foetuses, %: normal limit 1.5%
In short: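 Fetuses harvested by cesarean on gestation day 29 were scored for number and for any malformation (limb blockade, anury, tail or skull defects, exencephaly).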

[12] = pH of solutions in distilled water; assay type: physicochemical; conditions: administered solution in distilled water, concentration not given
Protocol: The neuropsychopharmacological study was undertaken according to the procedures described above for CRL 41 153, CRL 41 213 being adminstered intraperitoneally, in solution in distilled water, in a volume of 20 ml/kg to male mice and a volume of 5 ml/kg to male rats, and the pH of the injected solution varying with the concentration of CRL 41 213 according to the data given in Table II below.

CNS = experiment: Neuropsychopharmacological profile as a whole; assay type: in vivo, mice and rats
Protocol: as §1

[13] = tested on: nigrostriatal dopaminergic system; experiment: Interaction with alpha-methyltyrosine on stereotypies (difference from amphetamine); conditions: α-methyltyrosine (catecholamine synthesis blocked)

In the case of CC(C)NC(C)C(=O)c1ccc(N)cc1 (centres unmarked) [CRL 41 153, 1-(4-aminophenyl)-2-isopropylaminopropanone dihydrochloride], the “LD0 (maximum non-lethal dose)” value (male mice) is reported as “greater than 64 mg/kg”, the LD60 (male mice) is reported as “about 128 mg/kg” and the Observed symptoms (mice [1]; 0.5 mg/kg) is reported as “no particular symptoms”. The Observed symptoms (mice [1]; 2 mg/kg, dihydrochloride) was “excitation of low intensity 0.5 hour after administration; also recorded: stereotypies for 1 hour; also recorded: an increase in the fear reaction (for 1 hour) and in the reactivity to touch (2 to 3 hours after administration)”, the Observed symptoms (mice [1]; 8 mg/kg, dihydrochloride) was “excitation for 3 hours; also recorded: an increase in the fear reaction (for 3 hours) and in the reactivity to touch (for 24 hours)” and the “Hyperthermia (temperature change)” value (mice [1]; 32 mg/kg, 0.5 hour after administration) was “+1.1 °C”. For the same molecule, the Observed symptoms (mice [1]; 32 mg/kg, dihydrochloride) was “excitation and stereotypies for 3 hours; also recorded: an increase in the fear reaction (for 2 hours) and in the reactivity to touch (for 24 hours); also recorded: moderate mydriasis”, the Observed symptoms (rats [2]; 0.25 mg/kg) was “no particular symptoms” and the Observed symptoms (rats [2]; 1 mg/kg) was “mydriasis for 1 hour, reaching its maximum value 1 hour after administration”. The “Hyperthermia (maximum temperature change)” value (rats [2]; 4 mg/kg, 0.5 hour after administration) was “+1.9 °C”, the Observed symptoms (rats [2]; 4 mg/kg, dihydrochloride) was “excitation 0.5 hour after administration and stereotypies for 2 hours; also recorded: hyperthermia for 3 hours; also recorded: mydriasis for 2 hours, reaching its maximum value 0.5 hour after administration” and the Observed symptoms (rats [2]; 16 mg/kg, dihydrochloride) was “excitation 0.5 hour after administration; also recorded: stereotypies for 3 hours; also recorded: an increase in the fear reaction for 3 hours; also recorded: mydriasis for 3 hours, at a maximum 0.5 hour after administration”. For the same molecule, the “Effect on hypothermia induced by apomorphine” value (mice [3]) was “at doses of 2 mg/kg, 8 mg/kg and 32 mg/kg, CRL 41 153 (which is hyperthermic at the said doses) opposes the hypothermia induced by apomorphine”, the “Effect on righting behavior and stereotypies induced by apomorphine” value (mice [3]) was “without modifying the righting behavior and stereotypy behavior” and the “Effect on stereotypies induced by apomorphine” value (rats [4]) was “as from a dose of 0.5 mg/kg, CRL 41 153 potentiates the stereotypies induced by apomorphine”. The “Effect on stereotypies induced by amphetamine” value (rats [5]) was “at doses of 1 mg/kg. 4 mg/kg and 16 mg/kg, CRL 41 153 potentiates the intensity and duration of the stereotypies induced by amphetamine”, the “Effect on hypothermia induced by reserpine” value (mice [6]) was “as from a dose of 0.5 mg/kg, CRL 41 153 strongly opposes tbe hypothermia” and the “Effect on ptosis induced by reserpine” value (mice [6]) was “as from a dose of 0.5 mg/kg, CRL 41 153 strongly opposes tbe hypothermia and ptosis induced by reserpine”. The “Effect on convulsant effects of electric shock” value (mice [7]) was “at high doses, CRL 41 153 antagonizes the convulsant effects of electric shock”, the Spontaneous motor activity (mice [8]) was “increases the spontaneous motor activity of mice” and the “Number of fights / intergroup aggressiveness” value (mice [9]) was “at a dose of 8 mg/kg, CRL 41 153 reduces the number of fights”. The “Motor activity of mice accustomed to their enclosure” value (mice [10]) was “causes a distinct resumption in the motor activity of mice accustomed to their enclosure”, the “Effect of propanolol or atenolol on the action of the product” value (dogs) was “The increase in the femoral and vertebral flows is suppressed by propanolol” and the “Effects of isoprenaline on the blood pressure” value (dogs) was “does not modify the effects of isoprenaline on the blood pressure”. For the same molecule, the “Reflex bradycardia caused by hypertension” value (dogs) was “The reflex bradycardia caused by hypertension is converted to tachycardia”, the α-adrenergic stimulant effect (dogs) was “moderate α-adrenergic stimulant effect” and the “Blood flow through the femoral artery” value (dogs; oral, 2.5 to 5 mg/kg) was “increases the blood flow through the femoral artery”. The “Blood flow through the vertebral artery” value (dogs; oral, 2.5 to 5 mg/kg) was “increases the blood flow through the femoral artery and the blood flow through the vertebral artery at doses of 2.5 to 5 mg/kg”, the “Affected foetuses, number” value ([11]; 5 mg/kg daily) was 0 and the “Total foetuses (live)” value ([11]; 5 mg/kg daily) was 90. For the same molecule, the “Affected foetuses, %” value ([11]; 5 mg/kg daily) was 0%, the “Affected foetuses, number” value ([11]; 10 mg/kg daily) was 1 and the “Total foetuses (live)” value ([11]; 10 mg/kg daily) was 88. For the same molecule, the “Affected foetuses, %” value ([11]; 10 mg/kg daily) was 1.13%, the “Affected foetuses, number” value ([11]; 50 mg/kg daily) was 0 and the “Total foetuses (live)” value ([11]; 50 mg/kg daily) was 93. The “Affected foetuses, %” value ([11]; 50 mg/kg daily) was 0%, the pH [12] was 1.5 and the “Anticonvulsant effects (overall)” value (CNS; conclusion of the tests) was “anticonvulsant effects: at a high dose”. For the same molecule, the “Antidepressant effects (overall)” value (CNS; conclusion of the tests) was “behaves as an antidepressant for the CNS”, the “Stimulant effects (overall)” value (CNS; conclusion of the tests) was “distinct stimulant component” and the “α-adrenergic stimulant effects (overall)” value (CNS; conclusion of the tests) was “peripheral α-adrenergic stimulant effects”. For the same molecule, the “Peripheral α-adrenergic signs (mydriasis, salivation, lacrimation, exophthalmos)” value (CNS; species and dose not stated) was “mydriasis (with neither piloerection nor salivation)” and the “Effect of alpha-methyltyrosine on the stereotypies induced by the substance” value [13] was “only reduces them”.
